What all share (assay): NCI tumour cell line growth inhibition, 48 h
In test [1] the test system is BT-549.
The test system of test [2] is CCRF-CEM.
Test [3] deals with HCT-15.
Test [4] concerns HL-60.
Test [5] concerns IGROV-1.
Test [6] has as its system K562.
In test [7] the test system is LOX IMVI.
The subject of test [8] is MCF7.
The subject of test [9] is MDA-N.
Test [10] relates to MOLT-4.
Test [11] has as its system Malme-3M.
Test [12] concerns NCI-H23.
In test [13] the test system is NCI-H522.
Test [14] concerns OVCAR-4.
Test [15] concerns OVCAR-5.
The subject of test [16] is SF-268.
Test [17] has as its system SN12C.
Test [18] concerns SNB-19.
The subject of test [19] is SW-620.
Test [20] relates to TK-10.

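Dose response: 5 concentrations. Exposure: 48 h. Format: 96-well plates. Endpoint: linear interpolation; highest concentration if not reached. GI50 marks 50% less growth.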 Activity calls are given as the source filed them. No stated cut-off is given here; in the data, active = GI50 up to about 1.1 µM and inactive = higher.

Take `COC(=O)[C@]1(C)CCC[C@@]2(C)[C@@H]3C[C@@H]4[C@H]5C[C@@]3(CC[C@@H]21)C[C@@]45C`: the GI50 in test [1] is 16.5 µM (inactive); in test [2], 18 µM (inactive); in test [3], 16.2 µM; in test [4], 2.08 µM (inactive); in [5], 19.3 µM (inactive); in [6], 0.643 µM (active). Further, the GI50 was 19.7 µM (inactive) in [7]; 14.9 µM (inactive) in [8]; 17.9 µM (inactive) in test [9]; 14.5 µM (inactive) in test [10]; 22.2 µM (inactive) in test [11]; 14.6 µM (inactive) in test [12]. The GI50 in [13] is 16.8 µM (inactive); in [14], 13.8 µM (inactive); in test [15], 18 µM (inactive); in test [16], 17.9 µM (inactive); in [17], 19.2 µM (inactive); in test [18] it was 13.9 µM (inactive). In addition, the values for the GI50 in [19] and in test [20] were 24.3 µM (inactive) and 15.1 µM (inactive), respectively.

`C#C/C=C/CC1OC(C(Br)CC)CC(Br)C2CC1O2` (stereo not given): the GI50 is 38.9 µM (inactive) in test [1]; 38.6 µM (inactive) in [2]; 40.7 µM in [3]; 34.1 µM (inactive) in test [4]; 3.25 µM (inactive) in test [5]; 29 µM (inactive) in test [6]. The GI50 was 1.71 µM (inactive) in test [7]; 40.2 µM (inactive) in test [8]; 80.5 µM (inactive) in test [9]; 29.4 µM (inactive) in test [10]; 11.3 µM (inactive) in test [11]; > 100 µM (inactive) in [12]. Besides, the GI50 in test [13] is 2.58 µM (inactive); in test [14], 37.8 µM (inactive); in [15] it was > 100 µM (inactive); in [16], > 100 µM (inactive); in test [17] it was 63.7 µM (inactive); in [18], > 100 µM (inactive). For the same compound, the figures for the GI50 in test [19] and in test [20] were 34.8 µM (inactive) and > 100 µM (inactive), respectively.

With `O=C(/C=C1\N=C(c2ccccc2)N(c2nc3c(Cl)cc(Cl)cc3s2)C1=O)/C=C/c1ccccc1`, the GI50 in test [1] was > 100 µM (inactive); in test [2], 46.7 µM (inactive); in [3], 73.1 µM; in [4], 91 µM (inactive); in [5] it was > 100 µM (inactive); in test [6] it was 35 µM (inactive). The GI50 in [7] was > 100 µM (inactive); in [8], 63 µM (inactive); in [9], 45.8 µM (inactive); in test [10], 52.1 µM (inactive); in test [11], > 100 µM (inactive); in test [12], > 100 µM (inactive). Moreover, the GI50 is 45.1 µM (inactive) in test [13]; > 100 µM (inactive) in test [14]; > 100 µM (inactive) in test [15]; > 100 µM (inactive) in test [16]; > 100 µM (inactive) in [17]; > 100 µM (inactive) in test [18]. Besides, the values for the GI50 in test [19] and in test [20] were 72.3 µM (inactive) and > 100 µM (inactive), respectively.

`O=C(Nc1nn(C(=O)c2ccc(Cl)cc2)c(=O)s1)c1ccc(Cl)cc1`: the GI50 in test [1] was > 100 µM (inactive); in test [2], 76.4 µM (inactive); in test [3] it was over 100 µM; in [4], > 100 µM (inactive); in test [5] it was > 100 µM (inactive); in test [6], 77.8 µM (inactive). In addition, the GI50 in test [7], in test [8], in test [9], in test [10], in test [11] and in test [12] was > 100 µM (inactive) throughout. Further, the GI50 in [13], in test [14], in test [15], in [16], in test [17] and in test [18] was > 100 µM (inactive) throughout. For the same compound, the GI50 in test [19] and in test [20] was > 100 µM (inactive) throughout.

The values above are taken from ChEMBL document CHEMBL1201862, “PubChem BioAssay data set” (2004).
